# Measured values: US20240209028A1, “CNP COMPOUNDS” (priority 2022, published 2024)
# Starred links: 1 amine or outer side, 2 acyl side, 3 side chain; linkers in the order of their positions; H or OH if unused. Positions of bridges follow the written chain, without caps; N, C: chain ends. Residues, ends and D or L forms follow the SMILES beside them. *: point of attachment. C18 diacid = O=C(O)CCCCCCCCCCCCCCCCC(=O)*; γGlu = O=C(O)[C@H](CCC(=O)[*:2])N[*:1]; AEEA = NCCOCCOCC(=O)O
# Target: T1, human natriuretic peptide receptor 2 (hNPR2) (Homo sapiens, UniProt P20594)
# T1 construct: expressed in transfected cells; host or cells: HEK293 (ATCC CRL-1573), clone 35, co-transfected with pGloSensor-42F
# T1 sequence (P20594 23-1047): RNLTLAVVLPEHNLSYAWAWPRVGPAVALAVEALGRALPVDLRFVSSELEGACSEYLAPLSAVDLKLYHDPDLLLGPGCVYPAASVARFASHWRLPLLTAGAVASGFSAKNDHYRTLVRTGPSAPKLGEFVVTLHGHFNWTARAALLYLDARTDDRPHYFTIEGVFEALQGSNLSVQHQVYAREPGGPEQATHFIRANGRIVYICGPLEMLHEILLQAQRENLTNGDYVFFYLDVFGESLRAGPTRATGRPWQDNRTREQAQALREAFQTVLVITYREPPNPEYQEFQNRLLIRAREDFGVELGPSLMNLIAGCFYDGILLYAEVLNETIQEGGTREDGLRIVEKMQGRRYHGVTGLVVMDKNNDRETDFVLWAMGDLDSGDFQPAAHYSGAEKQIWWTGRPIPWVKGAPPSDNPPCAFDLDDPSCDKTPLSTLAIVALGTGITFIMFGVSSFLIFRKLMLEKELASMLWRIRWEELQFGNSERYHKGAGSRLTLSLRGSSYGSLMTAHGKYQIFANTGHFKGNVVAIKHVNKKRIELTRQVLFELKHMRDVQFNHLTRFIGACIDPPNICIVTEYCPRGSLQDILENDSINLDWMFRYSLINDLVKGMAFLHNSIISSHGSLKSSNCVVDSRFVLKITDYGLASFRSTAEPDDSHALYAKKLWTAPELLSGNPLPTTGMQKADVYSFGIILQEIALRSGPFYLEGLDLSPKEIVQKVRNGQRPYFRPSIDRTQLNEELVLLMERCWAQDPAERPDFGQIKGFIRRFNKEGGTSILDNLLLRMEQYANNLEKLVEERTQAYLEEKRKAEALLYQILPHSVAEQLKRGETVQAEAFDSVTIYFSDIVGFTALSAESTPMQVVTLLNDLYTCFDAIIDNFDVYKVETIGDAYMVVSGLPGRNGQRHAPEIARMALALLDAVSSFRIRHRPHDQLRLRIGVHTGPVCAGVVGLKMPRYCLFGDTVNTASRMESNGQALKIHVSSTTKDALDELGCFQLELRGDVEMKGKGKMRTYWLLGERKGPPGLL
# Experiment: In vitro hNPR2 activity assay (cGMP GloSensor reporter, HEK293)
# Type: cell-based
# Conditions: potency relative to CNP22 (0065)
# Outline: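 Potency is the EC50 from a four-parameter logistic fit, also expressed relative to the in-plate CNP22 control (×100), with at least two replicates. Compounds (ten concentrations, […], HSA-free diluent with 1% OVA, 0.01% Tween20) were incubated 30 min at 37 °C on HEK293 cells co-expressing hNPR2 and a GloSensor cGMP luciferase. Luminescence detected with Bright-Glo.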
row,Compound,hNPR2 0% HSA. [EC50% rel CNP] [%]
1,CC[C@H](C)[C@@H]1NC(=O)[C@H](CCCNC(=N)N)NC(=O)[C@H](CC(=O)O)NC(=O)[C@H](CC(C)C)NC(=O)[C@@H]2CCCN2C(=O)[C@H](CC(C)C)NC(=O)CNC(=O)[C@H](Cc2ccccc2)NC(=O)[C@@H](NC(=O)CNC(=O)[C@H](CO)NC(=O)[C@H](CO)NC(=O)[C@H](CC(C)C)NC(=O)CNC(=O)[C@H](CCC(=O)O)NC(=O)[C@H](CCCCN)NC(=O)[C@H](CCC(N)=O)NC(=O)[C@H](C)NC(=O)CNC(=O)[C@H](CCC(=O)O)NC(=O)COCCOCCNC(=O)COCCOCCNC(=O)CC[C@H](NC(=O)CCCCCCCCCCCCCCCCC(=O)O)C(=O)O)CSSC[C@@H](C(=O)O)NC(=O)CNC(=O)[C@H](CC(C)C)NC(=O)CNC(=O)[C@H](CO)NC(=O)[C@H](CC(C)C)NC(=O)[C@H](CO)NC(=O)CNC1=O [compound 1288] ({C18 diacid-γGlu-AEEA-AEEA}-EGAQKEGLSSGCFGLPLDRIGSLSGLGC-OH; disulfide 12-28),3.0
2,CC[C@H](C)[C@@H]1NC(=O)[C@H](CCCNC(=N)N)NC(=O)[C@H](CC(=O)O)NC(=O)[C@H](CC(C)C)NC(=O)[C@@H]2CCCN2C(=O)[C@H](CC(C)C)NC(=O)CNC(=O)[C@H](Cc2ccccc2)NC(=O)[C@@H](NC(=O)CNC(=O)[C@H](CO)NC(=O)[C@H](CO)NC(=O)[C@H](CC(C)C)NC(=O)CNC(=O)[C@H](CCC(=O)O)NC(=O)[C@H](CCCCN)NC(=O)[C@H](CCC(N)=O)NC(=O)[C@H](C)NC(=O)CNC(=O)[C@H](CCC(=O)O)NC(=O)[C@H](Cc2ccc(O)cc2)NC(=O)COCCOCCNC(=O)COCCOCCNC(=O)CC[C@H](NC(=O)CCCCCCCCCCCCCCCCC(=O)O)C(=O)O)CSSC[C@@H](C(=O)O)NC(=O)CNC(=O)[C@H](CC(C)C)NC(=O)CNC(=O)[C@H](CO)NC(=O)[C@H](CC(C)C)NC(=O)[C@H](CO)NC(=O)CNC1=O [compound 1289] ({C18 diacid-γGlu-AEEA-AEEA}-YEGAQKEGLSSGCFGLPLDRIGSLSGLGC-OH; disulfide 13-29),2.9
3,CC[C@H](C)[C@@H]1NC(=O)[C@H](CCCNC(=N)N)NC(=O)[C@H](CC(=O)O)NC(=O)[C@H](CC(C)C)NC(=O)[C@@H]2CCCN2C(=O)[C@H](CC(C)C)NC(=O)CNC(=O)[C@H](Cc2ccccc2)NC(=O)[C@@H](NC(=O)CNC(=O)[C@H](CO)NC(=O)[C@H](CO)NC(=O)[C@H](CC(C)C)NC(=O)CNC(=O)[C@H](CCCCN)NC(=O)[C@H](CCCCN)NC(=O)[C@H](CCC(N)=O)NC(=O)[C@H](C)NC(=O)CNC(=O)[C@H](CCC(=O)O)NC(=O)[C@H](Cc2ccc(O)cc2)NC(=O)COCCOCCNC(=O)COCCOCCNC(=O)CC[C@H](NC(=O)CC[C@H](NC(=O)CCCCCCCCCCCCCCCCC(=O)O)C(=O)O)C(=O)O)CSSC[C@@H](C(=O)O)NC(=O)CNC(=O)[C@H](CC(C)C)NC(=O)CNC(=O)[C@H](CO)NC(=O)[C@H](CC(C)C)NC(=O)[C@H](CO)NC(=O)CNC1=O [compound 1290] ({C18 diacid-γGlu-γGlu-AEEA-AEEA}-YEGAQKKGLSSGCFGLPLDRIGSLSGLGC-OH; disulfide 13-29),7.0
4,CC[C@H](C)[C@@H]1NC(=O)[C@H](CCCNC(=N)N)NC(=O)[C@H](CC(=O)O)NC(=O)[C@H](CC(C)C)NC(=O)[C@@H]2CCCN2C(=O)[C@H](CC(C)C)NC(=O)CNC(=O)[C@H](Cc2ccccc2)NC(=O)[C@@H](NC(=O)CNC(=O)[C@H](CO)NC(=O)[C@H](CO)NC(=O)[C@H](CC(C)C)NC(=O)CNC(=O)[C@@H](NC(=O)[C@H](CCCCN)NC(=O)[C@H](CCC(N)=O)NC(=O)[C@H](C)NC(=O)CNC(=O)[C@H](Cc2c[nH]cn2)NC(=O)[C@H](Cc2ccc(O)cc2)NC(=O)COCCOCCNC(=O)COCCOCCNC(=O)CC[C@H](NC(=O)CCCCCCCCCCCCCCCCC(=O)O)C(=O)O)[C@@H](C)O)CSSC[C@@H](C(=O)O)NC(=O)CNC(=O)[C@H](CC(C)C)NC(=O)CNC(=O)[C@H](CO)NC(=O)[C@H](CC(C)C)NC(=O)[C@H](CO)NC(=O)CNC1=O [compound 1302] ({C18 diacid-γGlu-AEEA-AEEA}-YHGAQKTGLSSGCFGLPLDRIGSLSGLGC-OH; disulfide 13-29),26.5
5,CC[C@H](C)[C@@H]1NC(=O)[C@H](CCCNC(=N)N)NC(=O)[C@H](CC(=O)O)NC(=O)[C@H](CC(C)C)NC(=O)[C@@H]2CCCN2C(=O)[C@H](CC(C)C)NC(=O)CNC(=O)[C@H](Cc2ccccc2)NC(=O)[C@@H](NC(=O)CNC(=O)[C@H](CO)NC(=O)[C@H](CO)NC(=O)[C@H](CC(C)C)NC(=O)CNC(=O)[C@@H](NC(=O)[C@H](Cc2c[nH]cn2)NC(=O)[C@H](CCC(N)=O)NC(=O)[C@H](C)NC(=O)CNC(=O)[C@H](CCCCN)NC(=O)[C@H](Cc2ccc(O)cc2)NC(=O)COCCOCCNC(=O)COCCOCCNC(=O)CC[C@H](NC(=O)CCCCCCCCCCCCCCCCC(=O)O)C(=O)O)[C@@H](C)O)CSSC[C@@H](C(=O)O)NC(=O)CNC(=O)[C@H](CC(C)C)NC(=O)CNC(=O)[C@H](CO)NC(=O)[C@H](CC(C)C)NC(=O)[C@H](CO)NC(=O)CNC1=O [compound 1305] ({C18 diacid-γGlu-AEEA-AEEA}-YKGAQHTGLSSGCFGLPLDRIGSLSGLGC-OH; disulfide 13-29),8.7
6,CC[C@H](C)[C@@H]1NC(=O)[C@H](CCCNC(=N)N)NC(=O)[C@H](CC(=O)O)NC(=O)[C@H](CC(C)C)NC(=O)[C@@H]2CCCN2C(=O)[C@H](CC(C)C)NC(=O)CNC(=O)[C@H](Cc2ccccc2)NC(=O)[C@@H](NC(=O)CNC(=O)[C@H](CCCCN)NC(=O)[C@H](CO)NC(=O)[C@H](CC(C)C)NC(=O)CNC(=O)[C@H](CCCCN)NC(=O)[C@H](CCCCN)NC(=O)[C@H](CCC(N)=O)NC(=O)[C@H](C)NC(=O)CNC(=O)[C@H](Cc2c[nH]cn2)NC(=O)[C@H](CCC(=O)O)NC(=O)COCCOCCNC(=O)COCCOCCNC(=O)CC[C@H](NC(=O)CCCCCCCCCCCCCCCCC(=O)O)C(=O)O)CSSC[C@@H](C(=O)O)NC(=O)CNC(=O)[C@H](CC(C)C)NC(=O)CNC(=O)[C@H](CO)NC(=O)[C@H](CC(C)C)NC(=O)[C@H](CO)NC(=O)CNC1=O [compound 1309] ({C18 diacid-γGlu-AEEA-AEEA}-EHGAQKKGLSKGCFGLPLDRIGSLSGLGC-OH; disulfide 13-29),33.3
7,CC[C@H](C)[C@@H]1NC(=O)[C@H](CCCNC(=N)N)NC(=O)[C@H](CC(=O)O)NC(=O)[C@H](CC(C)C)NC(=O)[C@@H]2CCCN2C(=O)[C@H](CC(C)C)NC(=O)CNC(=O)[C@H](Cc2ccccc2)NC(=O)[C@@H](NC(=O)CNC(=O)[C@H](CO)NC(=O)[C@H](CO)NC(=O)[C@@H](NC(=O)CNC(=O)[C@H](CCCCN)NC(=O)[C@H](CCCCN)NC(=O)[C@H](CCC(N)=O)NC(=O)[C@H](C)NC(=O)CNC(=O)[C@H](Cc2c[nH]cn2)NC(=O)[C@H](CCC(=O)O)NC(=O)COCCOCCNC(=O)COCCOCCNC(=O)CC[C@H](NC(=O)CCCCCCCCCCCCCCCCC(=O)O)C(=O)O)C(C)C)CSSC[C@@H](C(=O)O)NC(=O)CNC(=O)[C@H](CC(C)C)NC(=O)CNC(=O)[C@H](CO)NC(=O)[C@H](CC(C)C)NC(=O)[C@H](CO)NC(=O)CNC1=O [compound 1311] ({C18 diacid-γGlu-AEEA-AEEA}-EHGAQKKGVSSGCFGLPLDRIGSLSGLGC-OH; disulfide 13-29; C-terminus assumed),12.7
8,CC[C@H](C)[C@@H]1NC(=O)[C@H](CCCNC(=N)N)NC(=O)[C@H](CC(=O)O)NC(=O)[C@H](CC(C)C)NC(=O)[C@@H]2CCCN2C(=O)[C@H](CC(C)C)NC(=O)CNC(=O)[C@H](Cc2ccccc2)NC(=O)[C@@H](NC(=O)CNC(=O)[C@H](CO)NC(=O)[C@H](CO)NC(=O)[C@@H](NC(=O)CNC(=O)[C@@H](NC(=O)[C@H](CCCCN)NC(=O)[C@H](CCC(N)=O)NC(=O)[C@H](C)NC(=O)CNC(=O)[C@H](Cc2c[nH]cn2)NC(=O)[C@H](CCC(=O)O)NC(=O)COCCOCCNC(=O)COCCOCCNC(=O)CC[C@H](NC(=O)CCCCCCCCCCCCCCCCC(=O)O)C(=O)O)[C@@H](C)O)C(C)C)CSSC[C@@H](C(=O)O)NC(=O)CNC(=O)[C@H](CC(C)C)NC(=O)CNC(=O)[C@H](CO)NC(=O)[C@H](CC(C)C)NC(=O)[C@H](CO)NC(=O)CNC1=O [compound 1312] ({C18 diacid-γGlu-AEEA-AEEA}-EHGAQKTGVSSGCFGLPLDRIGSLSGLGC-OH; disulfide 13-29),9.0
